According to paper PMC9282638, “A Suite of Activity-Based Probes To Dissect the KLK Activome in Drug-Resistant Prostate Cancer” (Journal of the American Chemical Society, 2021):

Legend:
KLK2 = molecular target: T1, KLK2 (Homo sapiens, UniProt P20151); assay: Determination of kinact/KI, fluorogenic substrate kinetic assay; format: biochemical; settings: for kinact/KI: mean ± SEM (N = 3)
T1 construct: purchased R&D Systems
Text: 1.1 Chemicals and Reagents
All chemicals and reagents were purchased from commercial suppliers and used without further purification. Rink Amide resin (100-200 mesh) and 2-Chlorotrityl chloride resin (100-200 mesh, 1% DVB) were obtained from Merck. Natural Fmoc-amino acids were obtained from AGTC Bioproducts Ltd. Unnatural Fmoc-amino acids were obtained from Fluorochem, Alfa Aesar, VWR, Merck, Iris Biotech, Bachem or Sigma Aldrich. Culture media, fetal bovine serum, trypsin, antibiotics and chemicals required for differentiation of osteoprogenitor cells were obtained from Sigma Aldrich, Gibco or Invitrogen. Amicon 3 KDa Centrifugal filter units were obtained from Merck. Recombinant human KLK2 and KLK14 were obtained from R&D Systems and activated using the supplier’s protocol. All remaining chemical reagents were obtained from VWR, Sigma Aldrich or Merck. […]
Fluorescent plate-based enzymatic assays were carried out using an Envision 2104 Multilabel Plate Reader (PerkinElmer) operating in kinetic mode for a minimum of 20 min with excitation/emission […]
Specificity […]
was calculated by normalizing RFUs-1 to the highest value, which was set at 100 %.
Calculations were made in GraphPad Prism 5.
Determination of kcat/KM: The KLK2 substrate and KLK14 substrate were serially diluted in the appropriate KLK assay buffer and 25 μL was added to the wells of a 96-well plate. Next, 25 μL of KLK2 (1.5 nM) or KLK14 (75 pM) was added to each well containing the substrate and the enzyme-substrate reaction was monitored for at least 10 min. The linear portion of each progress curve was used to calculate relative fluorescence units per second (RFUs-1).
KM, kcat, and kcat/KM parameters were determined by nonlinear regression in GraphPad Prism 5 (GraphPad Software). Each experiment was repeated three times and the results are presented as an average ± SEM.
Determination of kinact/KI: Under pseudo-first order conditions, a fixed amount of KLK2 (1.5 nM) or KLK14 (37 pM) was incubated with peptidyl-DPP analogue at different concentrations in the presence of 5 µM of substrate. The pseudo first-order rate constant, kobs, was calculated for each probe concentration using non-linear regression analysis in GraphPad Prism 5. The obtained values were plotted against probe concentration to afford the apparent second order rate constant kinact(app)/KI. The absolute value of the second order rate constant was then obtained by adjusting for the substrate competition factor (1 + [S]/Km), where S is the concentration of substrate in the assay and KM is the Michaelis Menten constant for that substrate/enzyme reaction.
2.5 Cell Migration Assays
Cell migration: The assay was performed as per the manufacturer’s protocol (https://www.corning.com/catalog/cls/documents/protocols/an_Chemotaxis_protocol.pdf).
Briefly, LNCaP-WT, LNCaP-mK14 and LNCaP-K14 cells were grown to 80% confluency in RPMI media supplemented with 5 % FBS. The media was then aspirated, the cells were washed with 2 mL PBS (3*) and incubated with serum-free RPMI (without phenol red) supplemented with 10 nM DHT ± 100 ng/mL Dox for 24 h. Cells were trypsinized, washed twice with serum-free RPMI and resuspended in serum-free RPMI. 100,000 cells in 100 µL of serum-free RPMI was then added to the transwell inserts placed in a 24-well plate (Corning […]
Figure S15: KLK2 and KLK14 substrates. (A) Structures (B) Optimal assay conditions for […]
S19) inhibitors (C) Michaelis-Menten (K M) and rate (kcat) constants for KLK substrates

KLK14 = molecular target: T2, KLK14 (Homo sapiens, UniProt Q9P0G3); assay: as above; format: biochemical; settings: for kinact/KI: mean ± SEM (N = 3)
T2 construct: purchased R&D Systems
T2 sequence (Q9P0G3 25-251): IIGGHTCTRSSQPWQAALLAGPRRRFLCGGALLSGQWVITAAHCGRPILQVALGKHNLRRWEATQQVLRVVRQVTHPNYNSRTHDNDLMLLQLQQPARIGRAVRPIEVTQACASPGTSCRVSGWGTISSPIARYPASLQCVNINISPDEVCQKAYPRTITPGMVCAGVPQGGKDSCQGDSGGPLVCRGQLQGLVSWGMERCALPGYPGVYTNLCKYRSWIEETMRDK

[1] = KLK14 probe optimization series

T1 sequence (P20151 25-261): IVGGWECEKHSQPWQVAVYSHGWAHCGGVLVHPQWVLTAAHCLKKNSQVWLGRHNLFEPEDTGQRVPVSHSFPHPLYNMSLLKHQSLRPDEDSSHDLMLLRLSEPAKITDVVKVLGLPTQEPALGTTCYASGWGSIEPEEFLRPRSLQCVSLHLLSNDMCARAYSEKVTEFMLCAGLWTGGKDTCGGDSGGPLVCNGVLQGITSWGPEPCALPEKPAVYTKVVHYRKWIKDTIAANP

| Structure (SMILES) | kinact/KI (KLK2; [1]) [M⁻¹ s⁻¹] | selectivity (fold-change) (KLK14; KLK14 probe optimization series, KLK14 over KLK2) [fold] | kinact/KI (KLK14; [1]) [M⁻¹ s⁻¹] | fold higher potency toward KLK14 (KLK14; relative to compound 32) [fold] | selectivity (fold-change) (KLK2; KLK2 probe optimization series, KLK2 over KLK14) [fold] | kinact/KI (KLK2; KLK2 probe optimization series) [M⁻¹ s⁻¹] | kinact/KI (KLK14; KLK2 probe optimization series) [M⁻¹ s⁻¹] |
| --- | --- | --- | --- | --- | --- | --- | --- |
| CCC(NC(=O)C(CCN)NC(=O)C(Cc1ccc2ccccc2c1)NC(=O)CCCCCNC(=O)CCCCC1SCC2NC(=O)NC21)C(=O)NC(c1ccc(NC(=N)N)cc1)P(=O)(Oc1ccccc1)Oc1ccccc1 (stereo not drawn) [compound 39, 2Nal-Dab-Abu-Arg] | 204 ± 13 | 220 | 44500 ± 1980 | 80 | – | – | – |
| CC(C)(C)C(NC(=O)CCCCCNC(=O)CCCCC1SCC2NC(=O)NC21)C(=O)NC(CCN)C(=O)NC(Cc1ccc(O)cc1)C(=O)NC(c1ccc(NC(=N)N)cc1)P(=O)(Oc1ccccc1)Oc1ccccc1 (stereo not drawn) [compound 31, Tle-Dab-Tyr-Arg] | – | – | – | – | 33 | 3080 ± 87 | 94 ± 7 |
